Measured values reported in patent publication US10065972B2, “Bicyclic or tricyclic heterocyclic compound” (MITSUBISHI TANABE PHARMA CORPORATION, priority 2014, dated 2018).

Target: human recombinant KAT-II (Homo sapiens (Human), UniProt Q8N5Z0)
Assay: KAT-II inhibitory test
Assay type: biochemical
Conditions: 3.0 μmol/L kynurenine, 37° C., 1 hr, pH 8.0; kynurenic acid quantified by HPLC
Procedure: The compounds described in the above-mentioned Examples were used for the KAT-II inhibitory test.
Preparation of Human Recombinant KAT-II
Human recombinant KAT-II was prepared as follows.
His tag and maltose binding protein tag were added to the N-terminal of a gene encoding human KAT-II (Genbank accession number: AF481738.1), and the obtained gene was incorporated into pET32 (Merck Nihon Millipore), which is an Escherichia coli expression vector. Human recombinant KAT-II produced by BL21(DE3) Escherichia coli (Merck Nihon Millipore, 69450) transformed using the plasmid was purified using an amylose resin column (New England Biolabs, #800-21 L).
The inhibitory action of the test compound on human recombinant KAT-II was determined by the following method.
To a reaction mixture (45 μL) containing 3.0 μmol/L kynurenine, 10 μmol/L pyridoxal phosphate, 2.0 ng/μL human recombinant KAT-II, and 150 mmol/L tris(hydroxymethyl)aminomethane-acetate buffer (pH 8.0) was added a 10% dimethyl sulfoxide solution (5 μL) of each test compound prepared, and the mixture was reacted at 37° C. for 1 hr. After the reaction, 50% trichloroacetic acid (5 μL) was added to terminate the reaction.
The resultant kynurenic acid was quantified as follows by high performance liquid chromatography. An enzyme reaction mixture was separated by an octadecylsilane reversed-phase column (SC-50DS, Eicom Corporation; mobile phase: 250 mmol/L zinc acetate, 50 mmol/L sodium acetate, and 5.0% acetonitrile (pH 6.2)) incubated at 30° C., and kynurenic acid was quantified using a fluorescence detector (RF-20Axs, Shimadzu Corporation) at excitation wavelength 354 nm, detection wavelength 460 nm. The analytical curve was drawn every time by an external standard method. Each test compound was tested by dual measurement at each concentration.

Sequence of human recombinant KAT-II (Q8N5Z0 30-425): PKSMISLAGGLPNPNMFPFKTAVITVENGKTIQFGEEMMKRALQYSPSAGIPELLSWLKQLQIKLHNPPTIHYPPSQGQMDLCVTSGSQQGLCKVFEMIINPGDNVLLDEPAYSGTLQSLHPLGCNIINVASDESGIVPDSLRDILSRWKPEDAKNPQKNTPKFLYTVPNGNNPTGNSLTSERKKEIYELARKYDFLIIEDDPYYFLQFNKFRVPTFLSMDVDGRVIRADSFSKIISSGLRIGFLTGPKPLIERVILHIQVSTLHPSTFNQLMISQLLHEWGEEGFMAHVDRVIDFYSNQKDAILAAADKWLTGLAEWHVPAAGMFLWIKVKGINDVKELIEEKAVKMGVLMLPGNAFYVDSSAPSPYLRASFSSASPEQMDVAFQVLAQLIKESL

Compound | IC50 [nM]
CC(C)c1nc2sc([C@H]3CCCN3C(=O)Oc3ccccc3)nc2c(=O)n1C [Example 135, (R)-2-[6-methyl-7-oxo-5-(propan-2-yl)-6,7-dihydro[1,3]thiazolo[5,4-d]pyrimidin-2-yl]pyrrolidine-1-carboxylic acid phenyl ester] | 23
O=C(Oc1ccccc1)N1CCC[C@@H]1c1nc2c(=O)[nH]c(C(F)(F)F)cc2s1 [Example 138, (R)-2-(4-oxo-6-trifluoromethyl-4,5-dihydro[1,3]thiazolo[4,5-c]pyridin-2-yl)pyrrolidine-1-carboxylic acid phenyl ester] | 390
CC(C)c1cc(=O)n2nc([C@H]3CCCN3C(=O)Oc3ccc(F)cc3)sc2n1 [Example 140, (R)-2-[5-oxo-7-(propan-2-yl)-5H-[1,3,4]thiadiazolo[3,2-a]pyrimidin-2-yl]pyrrolidine-1-carboxylic acid 4-fluorophenyl ester] | 77
CC(C)c1cc(=O)n2nc([C@H]3CCCN3C(=O)Cc3ccccc3)sc2n1 [Example 142, 2-[(R)-1-(phenylacetyl)pyrrolidin-2-yl]-7-(propan-2-yl)-5H-[1,3,4]thiadiazolo[3,2-a]pyrimidin-5-one] | 980
CC(C)c1cc(=O)n2nc([C@H]3CCCN3C(=O)Cc3ccc(F)cc3)sc2n1 [Example 143, 2-{(R)-1-[2-(4-fluorophenyl)acetyl]pyrrolidin-2-yl}-7-(propan-2-yl)-5H-[1,3,4]thiadiazolo[3,2-a]pyrimidin-5-one] | 2200
CC(C)c1cc(=O)n2nc([C@H]3CCCN3C(=O)COc3ccccc3)sc2n1 [Example 145, 2-[(R)-1-(2-phenoxyacetyl)pyrrolidin-2-yl]-7-(propan-2-yl)-5H-[1,3,4]thiadiazolo[3,2-a]pyrimidin-5-one] | 1500
CCc1cc(=O)n2nc([C@H]3CCCN3C(=O)Oc3ccccc3)sc2n1 [Example 146, (R)-2-(7-ethyl-5-oxo-5H-[1,3,4]thiadiazolo[3,2-a]pyrimidin-2-yl)pyrrolidine-1-carboxylic acid phenyl ester] | 140
O=C(Oc1ccccc1)N1CCC[C@@H]1c1nn2c(=O)c3c(nc2s1)CCCC3 [Example 149, (R)-2-(5-oxo-6,7,8,9-tetrahydro-5H-[1,3,4]thiadiazolo[2,3-b]quinazolin-2-yl)pyrrolidine-1-carboxylic acid phenyl ester] | 160
CC(C)c1cc(=O)n2nc([C@H]3CCCN3C(=O)NCc3ccccc3Cl)sc2n1 [Example 158, (R)-N-(2-chlorobenzyl)-2-[5-oxo-7-(propan-2-yl)-5H-[1,3,4]thiadiazolo[3,2-a]pyrimidin-2-yl]pyrrolidine-1-carboxamide] | 170
CC(C)c1cc(=O)n2nc([C@H]3CCCN3C(=O)N3CCc4ccccc43)sc2n1 [Example 170, 2-[(R)-1-(2,3-dihydro-indole-1-carbonyl)pyrrolidin-2-yl]-7-(propan-2-yl)-5H-[1,3,4]thiadiazolo[3,2-a]pyrimidin-5-one] | 880
Cc1nc2sc([C@H]3CCCN3C(=O)N[C@H](C)c3ccccc3)nn2c(=O)c1C [Example 171, (R)-2-(6,7-dimethyl-5-oxo-5H-[1,3,4]thiadiazolo[3,2-a]pyrimidin-2-yl)-N-((R)-1-phenylethyl)pyrrolidine-1-carboxamide] | 1800
CCCc1cc(=O)n2nc(N3CCCN3C(=O)Oc3ccccc3)sc2n1 [Example 176, 2-(5-oxo-7-propyl-5H-[1,3,4]thiadiazolo[3,2-a]pyrimidin-2-yl)pyrazolidine-1-carboxylic acid phenyl ester] | 520

The remaining molecules from weak to strong by IC50, led by results:

IC50 [nM] | Compound
5200 | CC(C)c1cc(=O)n2nc([C@H]3CCCN3C(=O)Nc3ccccc3)sc2n1 [Example 160, (R)-2-[5-oxo-7-(propan-2-yl)-5H-[1,3,4]thiadiazolo[3,2-a]pyrimidin-2-yl]-N-phenylpyrrolidine-1-carboxamide]
3700 | Cc1nc2sc([C@H]3CCCN3C(=O)Nc3csc4ncccc34)nn2c(=O)c1C [Example 175, (R)-2-(6,7-dimethyl-5-oxo-5H-[1,3,4]thiadiazolo[3,2-a]pyrimidin-2-yl)-N-(thieno[2,3-b]pyridin-3-yl)-pyrrolidine-1-carboxamide]
840 | Cc1nc2sc([C@H]3CCCN3C(=O)NC(C)(C)c3ccccc3)nn2c(=O)c1C [Example 172, (R)-2-(6,7-dimethyl-5-oxo-5H-[1,3,4]thiadiazolo[3,2-a]pyrimidin-2-yl)-N-(1-methyl-1-phenylethyl)pyrrolidine-1-carboxamide]
720 | CC(C)c1cc(=O)n2nc([C@H]3CCCN3C(=O)OCc3ccccc3)sc2n1 [Example 144, (R)-2-[5-oxo-7-(propan-2-yl)-5H-[1,3,4]thiadiazolo[3,2-a]pyrimidin-2-yl]pyrrolidine-1-carboxylic acid benzyl ester]
470 | CC(C)c1cc(=O)n2nc([C@H]3CCCN3C(=O)NCc3ccccc3)sc2n1 [Example 157, (R)-N-benzyl-2-[5-oxo-7-(propan-2-yl)-5H-[1,3,4]thiadiazolo[3,2-a]pyrimidin-2-yl]pyrrolidine-1-carboxamide]
410 | CC(C)c1cc(=O)n2nc([C@H]3CCCN3C(=O)N[C@@H]3CCc4ccccc43)sc2n1 [Example 168, (R)-N-((R)-indan-1-yl)-2-[5-oxo-7-(propan-2-yl)-5H-[1,3,4]thiadiazolo[3,2-a]pyrimidin-2-yl]pyrrolidine-1-carboxamide]
320 | O=C(Oc1ccccc1)N1CCC[C@@H]1c1nn2c(=O)c3cc(F)ccc3nc2s1 [Example 155, (R)-2-(7-fluoro-5-oxo-5H-[1,3,4]thiadiazolo[2,3-b]quinazolin-2-yl)pyrrolidine-1-carboxylic acid phenyl ester]
230 | CCc1c(C)nc2sc([C@H]3CCCN3C(=O)Oc3ccccc3)nn2c1=O [Example 148, (R)-2-(6-ethyl-7-methyl-5-oxo-5H-[1,3,4]thiadiazolo[3,2-a]pyrimidin-2-yl)pyrrolidine-1-carboxylic acid phenyl ester]
190 | CC(C)c1cc(=O)n2nc([C@H]3CCCN3C(=O)CN3CCCc4ccccc43)sc2n1 [Example 166, 2-{(R)-1-[(3,4-dihydroquinolin-1(2H)-yl)acetyl]pyrrolidin-2-yl}-7-(propan-2-yl)-5H-[1,3,4]thiadiazolo[3,2-a]pyrimidin-5-one]
90 | CC(C)c1cc(=O)n2nc([C@H]3CCCN3C(=O)NC3(c4ccccc4)CC3)sc2n1 [Example 167, (R)-N-(1-phenylcyclopropyl)-2-[5-oxo-7-(propan-2-yl)-5H-[1,3,4]thiadiazolo[3,2-a]pyrimidin-2-yl]pyrrolidine-1-carboxamide]
69 | O=C(Oc1ccccc1)N1CCC[C@@H]1c1nc2c(=O)[nH]c(-c3ccccc3F)cc2s1 [Example 137, (R)-2-[6-(2-fluorophenyl)-4-oxo-4,5-dihydro[1,3]thiazolo[4,5-c]pyridin-2-yl]pyrrolidine-1-carboxylic acid phenyl ester]
48 | CC(C)c1nc2sc([C@H]3CCCN3C(=O)Oc3ccccc3)nn2c(=O)c1Cl [Example 153, (R)-2-[6-chloro-5-oxo-7-(propan-2-yl)-5H-[1,3,4]thiadiazolo[3,2-a]pyrimidin-2-yl]pyrrolidine-1-carboxylic acid phenyl ester]
